# Source: publication PMC5331435, “Metabolism of Zearalenone and Its Major Modified Forms in Pigs” (Toxins, 2017)
# Entries after “also recorded” stand apart in the source; their conditions may differ.
# Assays:
# [1] = Excretion and biological recovery of ZEN and its metabolites in urine and feces of piglets after a single oral bolus (HPLC-MS/MS); assay type: in vivo, pigs; conditions: for Hydrolysis in the gastrointestinal tract of pigs: oral application, conclusion from excreta analysis
# Protocol: Four castrated male weaning piglets (sow: Landrace × Large White, boar: Pietrain; 33–35 days old, 7.9 ± 0.6 kg) were obtained from a local producer in Lower Austria. Animals were housed separately in metabolic cages in total for 22 days and were allowed to acclimatize for five days before the start of the experiment. They had free access to water and feed was provided twice per day (semi ad libitum). The diet was analyzed for its concentration of ZEN and naturally occurring metabolites thereof.
# (§1) Using a repeated measures design, the piglets (n = 4) received water (negative control), ZEN (10 µg/kg b.w.; positive control) and the equimolar dose of ZEN-14-S (12.5 µg/kg b.w.), ZEN-16-Glc (15.1 µg/kg b.w.) and ZEN-14-Glc (15.1 µg/kg b.w.) per gavage (orogastric application) on day 1, 3, 7, 11, and 15 of the experiment, respectively. From the stock solutions containing between 991 (ZEN-14-S) and 1274 (ZEN-14-Glc) µg/mL of the analytes the adequate volumes for the animal experiment were removed and diluted with water for the oral application to obtain 5 µg/mL ZEN and the equimolar concentration of the other analytes in the aqueous stock solutions. Using polyvinyl chloride catheters (diameter 4.7 mm, Ch 14, mpö pfm GesmbH (Klagenfurt, Austria), length was adapted to the size of the esophagus of the piglets), volumes between 16 and 30 mL of the aqueous stock solutions were orally administered to the piglets, considering the piglets’ weight. After the toxin application, 10 mL of water was used to flush the catheter. Urine and feces of each of the piglets were quantitatively collected for the periods 0–24 h and 24–48 h after dosing. Urine was measured volumetrically on site and all excreta samples were stored at −20 °C until lyophilization (feces) or sample preparation and analysis (urine). The general condition of the animals was observed daily during the experiment.
# Urine samples were diluted 1:5000 with water and the creatinine content was determined by LC-MS/MS as described earlier. For determination of ZEN, its plant and fungal metabolites and their metabolites in pigs, urine samples were diluted to 0.2 mM creatinine with water and centrifuged prior to HPLC-MS/MS analysis.
# Five-hundred milligram aliquots of freeze-dried and thoroughly homogenized feces samples were extracted three times (90/30/30 min) with 5 mL each of ACN/water (50/50, v/v) on a GFL rotary shaker (type 3017, Burgwedel, Germany). After each extraction step, samples were clarified by centrifugation (10 min, 12,500 rpm, GS-15 centrifuge, Beckman Coulter, Indianapolis, IN, USA). Aliquots of the pooled supernatants were centrifuged and measured by HPLC-MS/MS.
# Analysis of the feces and urine samples was performed on a 1290 Infinity series UHPLC system (Agilent Technologies, Waldbronn, Germany) coupled to a 6500 QTrap mass spectrometer equipped with an IonDrive TurboV source (Sciex, Foster City, CA, USA). Analyst software version 1.6.2 (Sciex, Foster City, CA, USA) was used for instrument control and data analysis. Chromatographic separation was carried out on a Kinetex Biphenyl column (150 mm × 3 mm, 2.6 µm, Phenomenex, Aschaffenburg, Germany). Eluent A consisted of water/acetic acid (99.9/0.1, v/v), eluent B was composed of ACN/acetic acid (99.9/0.1, v/v). […] At 14 min, 100% was reached which was held until 16.9 min. Afterwards, the column was re-equilibrated at 15% B for 3 min, resulting in a total run time of 20 min. The flow rate was 400 µL/min, the column temperature was 30 °C and the injection volume was 2 µL. Mass spectrometric detection was performed in negative electrospray ionization mode and selected reaction monitoring (SRM) was applied as scan type. The source settings were as follows: source temperature 400 °C, ion spray voltage −4500 V, curtain gas 35 psi (ca. 240 kPa), ion source gas 1 at 55 psi (ca. 379 kPa) and gas 2 at 65 psi (ca. 448 kPa), collision gas (nitrogen) high. […]
# piglets = experiment: Observation of clinical symptoms in treated piglets; assay type: in vivo, pigs; conditions: single orogastric bolus, 10 µg/kg b.w. ZEN or equimolar dose, four piglets
# Protocol: For animal welfare considerations, amounts of administered toxins were chosen on the basis of no-observed-effect-levels of 10 µg/kg body weight per day for oral application in pigs. In short, four piglets received a single orogastric bolus of ZEN (10 µg/kg b.w.) and of its plant or fungal metabolites (at equimolar dose), respectively, using a repeated measures design.
# as §1, with “Using polyvinyl chloride catheters (diameter 4.7 mm, Ch 14, mpö pfm GesmbH (Klagenfurt, Austria), length was adapted to the size of the esophagus of the piglets), volumes between 16 and 30 mL of the aqueous stock solutions were orally administered to the piglets, considering the piglets’ weight. After the toxin application, 10 mL of water was used to flush the catheter.” left out, “The general condition of the animals was observed daily during the experiment.” left out
# [2] = parameters: method as in earlier work; conditions: humans, based on studies in pigs; cited from earlier work
# [3] = difference of hydrolyzed and untreated urine; cited from earlier work
# [4] = pigs, cited from earlier work
# [5] = test system: human intestinal bacteria; parameters: method as in PMID 23347206; conditions: human in vitro model; cited from earlier work
# [6] = test system: human breast cancer cells (MCF7); parameters: method as in PMID 26792714; conditions: MCF7 including fetal bovine serum; cited from earlier work
# [7] = parameters: method as in PMID 27856298; conditions: in vitro; cited from earlier work
# [8] = parameters: method as in PMID 2143610; conditions: contaminated feed, one pig; cited from earlier work
# human estrogen receptor = test system: human estrogen receptor; parameters: method as in PMID 16751557; conditions: cited from earlier work
# human Caco-2/TC7 cells = conditions: after six and 24 h; cited from earlier work
# human gut microbiota = conditions: cited from earlier work; for Share hydrolyzed after incubation with human gut microbiota: four hours; for Dose converted to unidentified metabolites / not recovered as identified metabolites / Dose detected as the aglycone (ZEN, α-ZEL or β-ZEL): incubation with human gut microbiota
# [9] = oral dose, cited from earlier work; for Recovery in rats: rats (ZEN-14-Glc as ZEN equivalents)
# uterus weight = test system: uterus weight; parameters: method as in PMID 1827972; conditions: intragastric, rats n = 6 per treatment; cited from earlier work
# [10] = test system: intestinal bacteria from human fecal slurry; parameters: method as in PMID 24386883; conditions: cited from earlier work
# [11] = after oral administration, piglets
# [12] = urine samples after oral administration, piglets
structure (smiles),measurement,setting,value
"C[C@H]1CCCC(=O)CCC/C=C/c2cc(O)cc(O)c2C(=O)O1 [ZEN, zearalenone]",Detection of β-ZEL in urine and feces,[1]; [11],neither be detected in urine nor in feces samples
same,Clinical symptoms during and after treatment,piglets,no clinical symptoms were observed
same,Tolerable daily intake (TDI),[2],0.25 µg/kg b.w.
same,Glucuronidation in pig urine,[3],27%
same,Glucuronidation in urine,[3],23%
same,Mean percentage of ingested ZEN excreted into urine,[4]; 24 h after application,28.4%
same,Biological recovery of intravenously administered ZEN,[4]; intravenous,77%
same,Part eliminated via urine within 12 h,[4]; intravenous,44%
same,Terminal elimination half-life,[4]; intravenously administered,2.63 h
same,Biological recovery of orally administered radiolabeled ZEN,"[4]; oral, after 48 h",67%
same,Radioactive ZEN excreted in bile that was reabsorbed into the systemic blood system,[4],about 85%
"C[C@H]1CCCC(=O)CCC/C=C/c2cc(O[C@@H]3O[C@H](CO)[C@@H](O)[C@H](O)[C@H]3O)cc(O)c2C(=O)O1 [ZEN-14-Glc, zearalenone-14-O-β-glucoside]",Detection of the intact administered conjugate in urine and feces,[1]; [11],none of the glucosides could be detected in urine or feces
same,Detection of the intact administered conjugate in urine and feces,"[1]; after oral administration, piglets, listed as ZEN-14-O-β-glucoside",neither detected in urine nor in feces
same,Hydrolysis in the gastrointestinal tract of pigs,[1],readily hydrolyzed to ZEN
same,Hydrolysis in the gastrointestinal tract of pigs,[1]; listed as ZEN-14-O-β-glucoside,completely hydrolyzed
same,Hydrolysis upon incubation with human intestinal bacteria,[5],completely hydrolyzed within 30 min
same,Conversion by MCF7 cells,[6],"convert ZEN-14-Glc to ZEN, α-ZEL and β-ZEL"
same,"Hydrolysis in bovine serum, plasma and whole blood",[7],in vitro hydrolysis of ZEN-14-Glc and release of ZEN
same,Metabolization during digestion in the pig,[8],completely metabolized to ZEN and α-ZEL
same,Interaction with the human estrogen receptor,human estrogen receptor,interrupted
same,Amount detected in the basolateral compartment,human Caco-2/TC7 cells,only traces
same,Share hydrolyzed after incubation with human gut microbiota,human gut microbiota,over 97%
same,Dose converted to unidentified metabolites / not recovered as identified metabolites,human gut microbiota,50%
same,"Dose detected as the aglycone (ZEN, α-ZEL or β-ZEL)",human gut microbiota,40%
same,Recovery in rats,[9],71%
same,Hydrolysis in the GI tract of rats,[9]; rats,partly hydrolyzed in the upper part of the GI tract
"C[C@H]1CCCC(=O)CCC/C=C/c2cc(OS(=O)(=O)O)cc(O)c2C(=O)O1 [ZEN-14-S, zearalenone-14-sulfate]",Detection of the intact administered conjugate in urine and feces,[1]; [11],neither detected in urine nor in feces samples
same,Detection of the intact administered conjugate in urine and feces,"[1]; after oral administration, piglets, listed as ZEN-14-sulfate",neither detected in urine nor in feces
same,ZEN metabolites in feces,"[1]; after oral application, piglets, listed as ZEN-14-sulfate",no ZEN metabolites were detected
same,Hydrolysis in the gastrointestinal tract of pigs,[1],rapidly hydrolyzed; also recorded: readily hydrolyzed to ZEN
same,Hydrolysis in the gastrointestinal tract of pigs,[1]; listed as ZEN-14-sulfate,completely hydrolyzed
same,Concentration of ZEN in urine,"[1]; second sampling period (24–48 h), piglets",Only traces
same,Concentration of α-ZEL in urine,[1]; [12],traces
same,Estrogenic activity (effect on uterus weight),uterus weight,partially retained the estrogenic activities of ZEN
same,Hydrolysis upon incubation with human intestinal bacteria,[5],completely hydrolyzed within 30 min
"C[C@H]1CCCC(=O)CCC/C=C/c2cc(O)cc(O[C@@H]3O[C@H](CO)[C@@H](O)[C@H](O)[C@H]3O)c2C(=O)O1 [ZEN-16-Glc, zearalenone-16-O-β-glucoside]",Detection of the intact administered conjugate in urine and feces,[1]; [11],none of the glucosides could be detected in urine or feces
same,Detection of the intact administered conjugate in urine and feces,"[1]; after oral administration, piglets, listed as ZEN-16-O-β-glucoside",neither detected in urine nor in feces
same,Hydrolysis in the gastrointestinal tract of pigs,[1],readily hydrolyzed to ZEN
same,Hydrolysis in the gastrointestinal tract of pigs,[1]; listed as ZEN-16-O-β-glucoside,completely hydrolyzed
same,Concentration of ZEN-14-GlcA in urine,[1]; [12],traces
same,Residue in the fecal slurry,[10]; after two hours,no residue
same,Conversion by intestinal bacteria from human fecal slurry,[10]; within 30 min,nearly completely converted to ZEN within 30 min
[13CH3][13C@H]1[13CH2][13CH2][13CH2][13C](=O)[13CH2][13CH2][13CH2]/[13CH]=[13CH]/[13c]2[13cH][13c](O)[13cH][13c](O)[13c]2[13C](=O)O1 [^13C-labeled ZEN],Recovery in rats,[9],74%
"C[C@H]1CCC[C@H](O)CCC/C=C/c2cc(O)cc(O)c2C(=O)O1 [α-ZEL, α-zearalenol]",Glucuronidation in pig urine,[3],88%
same,Glucuronidation in urine,[3],75%
CC1CCCC(O)CCCC=Cc2cc(OC3OC(CO)C(O)C(O)C3O)cc(O)c2C(=O)O1 (stereo not drawn) [α-ZEL-14-Glc],Amount detected in the basolateral compartment,human Caco-2/TC7 cells,only traces
same,Share hydrolyzed after incubation with human gut microbiota,human gut microbiota,over 97%
same,Dose converted to unidentified metabolites / not recovered as identified metabolites,human gut microbiota,40%
same,"Dose detected as the aglycone (ZEN, α-ZEL or β-ZEL)",human gut microbiota,60%
"C[C@H]1CCC[C@@H](O)CCC/C=C/c2cc(O)cc(O)c2C(=O)O1 [β-ZEL, β-zearalenol]",Glucuronidation in pig urine,[3],94%
same,Glucuronidation in urine,[3],56%
C[C@H]1CCC[C@@H](O)CCC/C=C/c2cc(O[C@@H]3O[C@H](CO)[C@@H](O)[C@H](O)[C@H]3O)cc(O)c2C(=O)O1 [β-ZEL-14-Glc],Share hydrolyzed after incubation with human gut microbiota,human gut microbiota,over 97%
same,Dose converted to unidentified metabolites / not recovered as identified metabolites,human gut microbiota,70%
same,"Dose detected as the aglycone (ZEN, α-ZEL or β-ZEL)",human gut microbiota,30%
